Target: T1, glutaminase (GAC) (Homo sapiens, UniProt O94925)
T1 sequence (O94925 55-598 isoform O94925-3 limits assumed): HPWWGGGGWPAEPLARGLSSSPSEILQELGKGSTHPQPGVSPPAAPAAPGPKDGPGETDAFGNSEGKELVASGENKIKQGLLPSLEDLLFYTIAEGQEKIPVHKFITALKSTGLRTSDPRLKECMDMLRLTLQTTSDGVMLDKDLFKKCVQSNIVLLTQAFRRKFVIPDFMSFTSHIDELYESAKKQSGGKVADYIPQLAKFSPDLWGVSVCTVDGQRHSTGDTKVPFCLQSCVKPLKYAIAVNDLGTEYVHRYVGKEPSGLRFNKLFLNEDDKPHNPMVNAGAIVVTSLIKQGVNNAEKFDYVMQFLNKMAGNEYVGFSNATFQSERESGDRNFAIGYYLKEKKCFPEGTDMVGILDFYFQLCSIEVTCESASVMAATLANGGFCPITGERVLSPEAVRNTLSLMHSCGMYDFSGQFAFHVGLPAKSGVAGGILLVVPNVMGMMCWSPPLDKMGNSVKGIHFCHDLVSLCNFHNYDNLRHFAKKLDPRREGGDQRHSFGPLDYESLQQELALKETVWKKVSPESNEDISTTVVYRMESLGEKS
Assay: Glutaminase (GAC) coupled endpoint enzymatic assay (glutamate dehydrogenase/diaphorase/resazurin, Ex544/Em590)
Type: biochemical
Conditions: inhibition of glutaminase, tested in an assay of Example A or Example B; class symbols A-E
Excerpt: In certain embodiments, exemplary compounds of Formula I include the compounds described in Table 1 and in the Examples. A compound described herein may be tested for its ability to inhibit glutaminase, e.g., by an assay as described in the Examples. For simplicity, the inhibition activity of these compounds is represented as an IC50 tested in an assay of Example A or Example B in Table 1. […] “N/A” refers to compounds wherein the IC50 is unavailable.
In this example, the enzymatic activity of glutaminase is measured through a coupled endpoint assay. Glutamine and phosphate are supplied to GAC at a concentration equal to Km and AC50, respectively, and GAC concentration is adjusted to give a linear reaction for 60 minutes. The glutamate produced is converted to 2-OG by a kinetic excess of glutamate dehydrogenase. This second step is configured for 2× Km for NAD, since excess NAD is inhibitory. However, a kinetic excess of the third coupling enzyme, diaphorase, recycles NAD from NADH to keep the NAD concentration constant during the timecourse of the assay. Diaphorase, also supplied in kinetic excess, oxidizes NADH produced by GDH back to NAD with the concomitant reduction of rezasurin to the highly fluorescent resorufin. Resorufin in measured after the assay is stopped with SDS by Ex544/Em590. A reduction in the signal indicates inhibition of some component of the coupled enzyme system. Prospective hits are counterscreened against GDH/diaphorase alone to remove hits to the coupling enzyme system in a second assay.
2. Buffers 2× Buffer (300 mM NaCl, 100 mM HEPES pH 8.5, 0.1% BSA, 0.5 mM EDTA, 100 mM sodium phosphate pH 8.5) 5× Substrate Mix (1× Buffer final concentration, with 13 mM glutamine, 100 μM resazurin, 50 μg/ml diaphorase) 1.2× Enzyme Mix (1× Buffer final concentration, with 0.875 μg/ml GAC, 1.56 mM NAD, 6.25 units/ml GDH) Stop Mix (6% SDS in ddH2O) Reaction Procedure 1. Add 1 μl compound in 100% DMSO 2. Add 40 μl of Enzyme Mix and incubate for 60 minute at room temperature 3. Add 10 μl of Substrate Mix to start reaction 4. Stop reaction with 25 μl of 6% SDS and read Ex544 Em 590

| SMILES | IC50 |
| --- | --- |
| O=C(/C=C/c1ccccn1)Nc1nnc([C@H]2CCC[C@H](c3nnc(NC(=O)/C=C/c4ccccn4)s3)C2)s1 [Compound 45, (2E,2′E)-N,N′-(5,5′-((1S,3S)-cyclohexane-1,3-diyl)bis(1,3,4-thiadiazole-5,2-diyl))bis(3-(pyridin-2-yl)acrylamide)] | 100 to 500 nM |
| O=C(Cc1ccncc1)Nc1nnc([C@H]2CCC[C@H](c3nnc(NC(=O)Cc4ccncc4)s3)C2)s1 [Compound 29, N,N′-(5,5′-((1S,3S)-cyclohexane-1,3-diyl)bis(1,3,4-thiadiazole-5,2-diyl))bis(2-(pyridin-4-yl)acetamide)] | < 100 nM |
| O=C(Cc1cccc(OC(F)(F)F)c1)Nc1nnc([C@H]2CC[C@H](c3nnc(NC(=O)[C@@H](O)c4ccccc4)s3)C2)s1 [Compound 374, (S)-2-hydroxy-2-phenyl-N-(5-((1S,3S)-3-(5-(2-(3-(trifluoromethoxy)phenyl)acetamido)-1,3,4-thiadiazol-2-yl)cyclopentyl)-1,3,4-thiadiazol-2-yl)acetamide] | < 100 nM |
| O=C(Nc1nnc([C@H]2CCC[C@H](c3nnc(NC(=O)C4CCCC4)s3)C2)s1)C1CCCC1 [Compound 62, N,N′-(5,5′-((1S,3S)-cyclohexane-1,3-diyl)bis(1,3,4-thiadiazole-5,2-diyl))dicyclopentanecarboxamide] | 1000 to 2000 nM |
| O=C(CCC(F)(F)F)Nc1nnc([C@H]2CCC[C@H](c3nnc(NC(=O)CCC(F)(F)F)s3)C2)s1 [Compound 47, N,N′-(5,5′-((1S,3S)-cyclohexane-1,3-diyl)bis(1,3,4-thiadiazole-5,2-diyl))bis(4,4,4-trifluorobutanamide)] | 1000 to 2000 nM |
| N#Cc1cccc(CC(=O)Nc2nnc([C@H]3CCC[C@H](c4nnc(NC(=O)Cc5cccc(C#N)c5)s4)C3)s2)c1 (single isomer, unassigned) [Compound 73] | < 100 nM |
| CC(=O)Nc1nnc([C@H]2CCC[C@H](c3nnc(NC(C)=O)s3)C2)s1 [Compound 41] | 100 to 500 nM |
| CS(=O)(=O)c1ccc(CC(=O)Nc2nnc([C@H]3CCC[C@H](c4nnc(NC(=O)Cc5ccc(S(C)(=O)=O)cc5)s4)C3)s2)cc1 [Compound 66, N,N′-(5,5′-((1S,3S)-cyclohexane-1,3-diyl)bis(1,3,4-thiadiazole-5,2-diyl))bis(2-(4-(methylsulfonyl)phenyl)acetamide)] | < 100 nM |
| O=C(CCc1ccccn1)Nc1nnc([C@H]2CCC[C@H](c3nnc(NC(=O)CCc4ccccn4)s3)C2)s1 [Compound 80, N,N′-(5,5′-((1S,3S)-cyclohexane-1,3-diyl)bis(1,3,4-thiadiazole-5,2-diyl))bis(3-(pyridin-2-yl)propanamide)] | 100 to 500 nM |
| CC(=O)Nc1nnc([C@H]2CCC[C@H](c3nnc(NC(C)=O)s3)C2)s1 (single isomer, unassigned) [Compound 99] | 100 to 500 nM |
| O=C(Cc1cnccn1)Nc1nnc([C@H]2CCC[C@H](c3nnc(NC(=O)Cc4cnccn4)s3)C2)s1 (relative stereo) [Compound 76] | < 100 nM |
| O=C(Cc1ccc(F)cc1)Nc1nnc([C@H]2CCC[C@H](c3nnc(NC(=O)Cc4ccc(F)cc4)s3)C2)s1 [Compound 88, N,N′-(5,5′-((1S,3S)-cyclohexane-1,3-diyl)bis(1,3,4-thiadiazole-5,2-diyl))bis(2-(4-fluorophenyl)acetamide)] | 100 to 500 nM |
| O=C(CN1CCCC1=O)Nc1nnc([C@H]2CCC[C@H](c3nnc(NC(=O)CN4CCCC4=O)s3)C2)s1 [Compound 85, N,N′-(5,5′-((1S,3S)-cyclohexane-1,3-diyl)bis(1,3,4-thiadiazole-5,2-diyl))bis(2-(2-oxopyrrolidin-1-yl)acetamide)] | 500 to 1000 nM |
| CC(=O)N(C)c1cccc(CC(=O)Nc2nnc([C@H]3CCC[C@H](c4nnc(NC(=O)Cc5cccc(N(C)C(C)=O)n5)s4)C3)s2)n1 [Compound 385, N,N′-(5,5′-((1S,3S)-cyclohexane-1,3-diyl)bis(1,3,4-thiadiazole-5,2-diyl))bis(2-(6-(N-methylacetamido)pyridin-2-yl)acetamide)] | < 100 nM |
| COc1ccc(CC(=O)Nc2nnc([C@H]3CC[C@H](c4nnc(NC(=O)Cc5cccc(N6CC(F)(F)C6)n5)s4)C3)s2)cn1 [Compound 358] | < 100 nM |

Reference: patent US10087172B2, “Compounds and their methods of use” (AGIOS PHARMACEUTICALS, INC, priority 2012, dated 2018)
